Laboratory results reported in patent US9657057B2, “Dipeptide and tripeptide epoxy ketone protease inhibitors” (Onyx Therapeutics, Inc., priority 2013, dated 2017).
pIC50: −log10 of the molar value. In brackets after ≈: the same amount, converted by molar mass. Several values for one entry are separate records, joined by “and”; a condition that tells them apart may be missing. Equal entries are not always repeated.

Legend:
[1] = biological target: i20S (20S immunoproteasome) (Homo sapiens, UniProt P20618+P28062); test: 20S proteasome assay, chymotrypsin-like activity (LLVY), i20S; assay type: biochemical; conditions: LLVY i20S Hu 1 h CONT: IC50 (nM), succinyl-Leu-Leu-Val-Tyr-AMC
Text: (§1) Assay buffer consisted of TE buffer [20 mmol/L Tris (pH 8.0), 0.5 mmol/L EDTA] with (20S) or without (cell lysate) 0.03% SDS. Reactions were initiated by enzyme or lysate addition and monitored for AMC product formation at 27jC with a plate-based spectofluorometer (Tecan).

[2] = Solubility pH 7; assay type: physicochemical; conditions: pH 7, aqueous buffer
[3] = biological target: c20S (constitutive 20S proteasome) (Homo sapiens, UniProt P20618+P28074); test: 20S proteasome assay, chymotrypsin-like activity (LLVY), c20S; assay type: biochemical; conditions: LLVY c20S Hu 1 h CONT: IC50 (nM), succinyl-Leu-Leu-Val-Tyr-AMC
Text: as §1

[4] = biological target: T1, LMP7 (Homo sapiens, UniProt P20618+P28062); test: ProCISE proteasome subunit assay, LMP7; assay type: biochemical; conditions: for pIC50: MOLT4 lysate Hu 1 h
T1 construct: endogenous in cells; host or cells: MOLT-4
Method: (§2) This assay was used to assess the inhibitory activity against each of LMP2, LMP7, MECL1, β1, β2, and β5. Briefly, test compounds were serially diluted in DMSO at 100× concentration, then diluted to 10× in aqueous hypotonic lysis buffer. Lysate from the human acute lymphoblastic leukemia cell line, MOLT-4, was treated for 1 hour at 25° C. with compound at a final 1× concentration. […] Following this, lysate was denatured in guanidine hydrochloride, and subunits bound to probe were isolated with streptavidin-conjugated sepharose beads. Individual subunits were probed with subunit-specific primary antibodies, followed by HRP-conjugated secondary antibodies. A chemiluminescent substrate was used to generate signal associated with HRP binding, which was detected on a plate reader. Luminescent signal was normalized to protein content, then, percent activity calculated relative to DMSO-treated controls to generate IC50 curves.

[5] = biological target: T2, β5 (Homo sapiens, UniProt P20618+P28074); test: ProCISE proteasome subunit assay, β5; assay type: biochemical; conditions: for pIC50: MOLT4 lysate Hu 1 h
T2 construct: endogenous in cells; host or cells: MOLT-4
Method: as §2

COc1ccc(C[C@H](NC(=O)[C@H](C)NC(=O)CO)C(=O)N[C@@H](Cc2ccccc2)C(=O)[C@@]2(C)CO2)cc1 [Compound C-2008]
IC50 [1]: 558 nM
solubility [2]: 2330 µg/mL (≈ 4560 µM)
IC50 [3]: 1590 nM

COC(=O)N[C@H](C)C(=O)N[C@@H](Cc1ccc(OC)cc1)C(=O)N[C@@H](Cc1ccccc1)C(=O)[C@@]1(C)CO1 [Compound C-2010, Methyl ((R)-1-(((S)-3-(4-methoxyphenyl)-1-(((S)-1-((R)-2-methyloxiran-2-yl)-1-oxo-3-phenylpropan-2-yl)amino)-1-oxopropan-2-yl)amino)-1-oxopropan-2-yl)carbamate]
IC50 [1]: 414 nM
solubility [2]: 300 µg/mL (≈ 587 µM)
IC50 [3]: 1050 nM

COc1ccc(C[C@H](NC(=O)[C@H](C)NC(=O)CCO)C(=O)N[C@@H](Cc2ccccc2)C(=O)[C@@]2(C)CO2)cc1 [Compound C-2012, (S)-2-((S)-2-(3-hydroxypropanamido)propanamido)-3-(4-methoxyphenyl)-N—((S)-1-((R)-2-methyloxiran-2-yl)-1-oxo-3-phenylpropan-2-yl)propanamide]
IC50 [1]: 86.9 nM
solubility [2]: 3830 µg/mL (≈ 7280 µM)
IC50 [3]: 262 nM

COCCC(=O)N[C@@H](C)C(=O)N[C@@H](Cc1ccc(OC)cc1)C(=O)N[C@@H](CC1CCCC1)C(=O)[C@@]1(C)CO1 [Compound C-2019, (S)—N—((S)-3-cyclopentyl-1-((R)-2-methyloxiran-2-yl)-1-oxopropan-2-yl)-3-(4-methoxyphenyl)-2-((S)-2-(3-methoxypropanamido)propanamido)propanamide]
IC50 [1]: 332 nM
solubility [2]: 316 µg/mL (≈ 594 µM)
IC50 [3]: 579 nM

CCOCC(=O)N[C@@H](C)C(=O)N[C@@H](Cc1ccc(OC)cc1)C(=O)N[C@@H](CC1CCCC1)C(=O)[C@@]1(C)CO1 [Compound C-2020, (S)—N—((S)-3-cyclopentyl-1-((R)-2-methyloxiran-2-yl)-1-oxopropan-2-yl)-2-((S)-2-(2-ethoxyacetamido)propanamido)-3-(4-methoxyphenyl)propanamide]
IC50 [1]: 560 nM
solubility [2]: 59.1 µg/mL (≈ 111 µM)
IC50 [3]: 797 nM

COc1ccc(C[C@H](NC(=O)[C@@H](C)NC(=O)c2oncc2C)C(=O)N[C@@H](CC2CCCC2)C(=O)[C@@]2(C)CO2)cc1 [Compound C-2024, N—((R)-1-(((S)-1-(((S)-3-cyclopentyl-1-((R)-2-methyloxiran-2-yl)-1-oxopropan-2-yl)amino)-3-(4-methoxyphenyl)-1-oxopropan-2-yl)amino)-1-oxopropan-2-yl)-4-methylisoxazole-5-carboxamide]
IC50 [1]: 2270 nM
solubility [2]: 44.1 µg/mL (≈ 79.5 µM)
IC50 [3]: 6030 nM

COc1ccc(C[C@H](NC(=O)[C@H](C)NC(=O)c2cnc(C)s2)C(=O)N[C@@H](CC2CCCC2)C(=O)[C@@]2(C)CO2)cc1 [Compound C-2025, N—((S)-1-(((S)-1-(((S)-3-cyclopentyl-1-((R)-2-methyloxiran-2-yl)-1-oxopropan-2-yl)amino)-3-(4-methoxyphenyl)-1-oxopropan-2-yl)amino)-1-oxopropan-2-yl)-2-methylthiazole-5-carboxamide]
IC50 [1]: 569 nM
solubility [2]: 144 µg/mL (≈ 253 µM)
IC50 [3]: 289 nM

COc1ccc(C[C@H](NC(=O)[C@@H](C)NC(=O)c2nc3ccccc3[nH]2)C(=O)N[C@@H](CC2CCCC2)C(=O)[C@@]2(C)CO2)cc1 [Compound C-2029, N—((R)-1-(((S)-1-(((S)-3-cyclopentyl-1-((R)-2-methyloxiran-2-yl)-1-oxopropan-2-yl)amino)-3-(4-methoxyphenyl)-1-oxopropan-2-yl)amino)-1-oxopropan-2-yl)-1H-benzo[d]imidazole-2-carboxamide]
IC50 [1]: 2580 nM
solubility [2]: 1.7 µg/mL (≈ 2.88 µM)
IC50 [3]: 3400 nM

COc1ccc(C[C@H](NC(=O)[C@@H](C)NC(=O)C2=Cc3ccccc3C2)C(=O)N[C@@H](CC2CCCC2)C(=O)[C@@]2(C)CO2)cc1 [Compound C-2036, N—((R)-1-(((S)-1-(((S)-3-cyclopentyl-1-((R)-2-methyloxiran-2-yl)-1-oxopropan-2-yl)amino)-3-(4-methoxyphenyl)-1-oxopropan-2-yl)amino)-1-oxopropan-2-yl)-1H-indene-2-carboxamide]
solubility [2]: 2.1 µg/mL (≈ 3.57 µM)
IC50 [3]: 5140 nM and 2710 nM
pIC50 [4]: 6.89
pIC50 [5]: 5.31

COc1ccc(C[C@H](NC(=O)CNC(=O)C2=C(C)c3ccccc3C2)C(=O)N[C@@H](CC2CCCC2)C(=O)[C@@]2(C)CO2)cc1 [Compound C-2039, N-(2-(((S)-1-(((S)-3-cyclopentyl-1-((R)-2-methyloxiran-2-yl)-1-oxopropan-2-yl)amino)-3-(4-methoxyphenyl)-1-oxopropan-2-yl)amino)-2-oxoethyl)-3-methyl-1H-indene-2-carboxamide]
IC50 [1]: 2520 nM
solubility [2]: 1.7 µg/mL (≈ 2.89 µM)
IC50 [3]: 3950 nM

COc1ccc(C[C@H](NC(=O)[C@H](C)NC(=O)C2=C(C)c3ccccc3C2)C(=O)N[C@@H](Cc2ccccc2)C(=O)[C@@]2(C)CO2)cc1 [Compound C-2049, N—((S)-1-(((S)-3-(4-methoxyphenyl)-1-(((S)-1-((R)-2-methyloxiran-2-yl)-1-oxo-3-phenylpropan-2-yl)amino)-1-oxopropan-2-yl)amino)-1-oxopropan-2-yl)-3-methyl-1H-indene-2-carboxamide]
solubility [2]: 0.8 µg/mL (≈ 1.31 µM)
IC50 ([4]; ProCISE LMP7 MOLT4 lysate Hu 1 h CONT: IC50 (nM)): 45.8 nM
IC50 ([5]; ProCISE beta5 MOLT4 lysate Hu 1 h CONT: IC50 (nM)): 57.6 nM

COc1ccc(C[C@H](NC(=O)[C@@H](C)NC(=O)CC(C)(C)O)C(=O)N[C@@H](Cc2ccc(C)cc2)C(=O)[C@H]2CO2)cc1 [Compound C-2053, 3-hydroxy-N—((R)-1-(((S)-3-(4-methoxyphenyl)-1-(((S)-1-((R)-oxiran-2-yl)-1-oxo-3-(p-tolyl)propan-2-yl)amino)-1-oxopropan-2-yl)amino)-1-oxopropan-2-yl)-3-methylbutanamide]
solubility [2]: 1260 µg/mL (≈ 2270 µM)
pIC50 [4]: 8.74
pIC50 [5]: 8.28

C[C@@H](NC(=O)CC(C)(C)O)C(=O)N[C@@H](Cc1ccc(S(C)(=O)=O)cc1)C(=O)N[C@@H](CC1CCCC1)C(=O)[C@H]1CO1 [Compound C-2055, N—((R)-1-(((S)-1-(((S)-3-cyclopentyl-1-((R)-oxiran-2-yl)-1-oxopropan-2-yl)amino)-3-(4-(methylsulfonyl)phenyl)-1-oxopropan-2-yl)amino)-1-oxopropan-2-yl)-3-hydroxy-3-methylbutanamide]
solubility [2]: 1970 µg/mL (≈ 3400 µM)
pIC50 [4]: 7.75
pIC50 [5]: 6.45

COc1ccc(C[C@H](NC(=O)[C@@H](C)NC(=O)C2=CCCC2)C(=O)N[C@@H](Cc2ccccc2)C(=O)[C@@]2(C)CO2)cc1 [Compound C-2058, N—((R)-1-(((S)-3-(4-methoxyphenyl)-1-(((S)-1-((R)-2-methyloxiran-2-yl)-1-oxo-3-phenylpropan-2-yl)amino)-1-oxopropan-2-yl)amino)-1-oxopropan-2-yl)cyclopent-1-enecarboxamide]
solubility [2]: 45.4 µg/mL (≈ 82.9 µM)
pIC50 [4]: 6.27
pIC50 [5]: 5.37

COc1ccc(C[C@H](NC(=O)[C@@H](C)NC(=O)[C@@H]2CCc3[nH]ncc3C2)C(=O)N[C@@H](CC2CCCC2)C(=O)[C@@]2(C)CO2)cc1 [Compound C-2064, (R)—N—((R)-1-(((S)-1-(((S)-3-cyclopentyl-1-((R)-2-methyloxiran-2-yl)-1-oxopropan-2-yl)amino)-3-(4-methoxyphenyl)-1-oxopropan-2-yl)amino)-1-oxopropan-2-yl)-4,5,6,7-tetrahydro-1H-indazole-5-carboxamide]
solubility [2]: 144 µg/mL (≈ 242 µM)
pIC50 [4]: 6.86
pIC50 [5]: 5.21

COc1ccc(C[C@H](NC(=O)[C@@H](C)NC(=O)[C@H]2CCc3[nH]ncc3C2)C(=O)N[C@@H](CC2CCCC2)C(=O)[C@@]2(C)CO2)cc1 [Compound C-2065, (S)—N—((R)-1-(((S)-1-(((S)-3-cyclopentyl-1-((R)-2-methyloxiran-2-yl)-1-oxopropan-2-yl)amino)-3-(4-methoxyphenyl)-1-oxopropan-2-yl)amino)-1-oxopropan-2-yl)-4,5,6,7-tetrahydro-1H-indazole-5-carboxamide]
solubility [2]: 121 µg/mL (≈ 204 µM)
pIC50 [4]: 6.80
pIC50 [5]: 5.18

COc1ccc(C[C@H](NC(=O)[C@@H]2CC(=O)N2)C(=O)N[C@@H](Cc2ccccc2)C(=O)[C@@]2(C)CO2)cc1 [Compound C-3002, (S)—N—((S)-3-(4-methoxyphenyl)-1-(((S)-1-((R)-2-methyloxiran-2-yl)-1-oxo-3-phenylpropan-2-yl)amino)-1-oxopropan-2-yl)-4-oxoazetidine-2-carboxamide]
solubility [2]: 1460 µg/mL (≈ 3050 µM)
pIC50 [4]: 6.03
pIC50 [5]: 5.71

COc1ccc(C[C@H](NC(=O)[C@H]2CC(=O)N2)C(=O)N[C@@H](Cc2ccccc2)C(=O)[C@@]2(C)CO2)cc1 [Compound C-3003, (R)—N—((S)-3-(4-methoxyphenyl)-1-(((S)-1-((R)-2-methyloxiran-2-yl)-1-oxo-3-phenylpropan-2-yl)amino)-1-oxopropan-2-yl)-4-oxoazetidine-2-carboxamide]
solubility [2]: 1200 µg/mL (≈ 2500 µM)
pIC50 [4]: 6.29
pIC50 [5]: 5.91
